Molecules are shown by their SMILES.

One assay has as its system Escherichia coli. Nature of the assay: Antimicrobial activity against Escherichia coli isolates producing extended-spectrum beta-lactamases bla(CTX-M-1), bla(CTX-M-32) and bla(SHV-12) isolated from Italian broiler flocks by agar dilution method. Type of assay: functional. On the technique in general: In agar dilution, organisms are placed on agar that contains the substance at set levels.
As usually defined, the MIC is the lowest concentration found to suppress growth. A higher MIC goes with weaker potency. `CO/N=C(\C(=O)N[C@@H]1C(=O)N2C(C(=O)O)=C(COC(C)=O)CS[C@H]12)c1csc(N)n1` [CEFOTAXIME] yielded a minimal inhibitory concentration (MIC) not below 2 µg/mL.
On the same count and under the same terms, the result for `CO/N=C(\C(=O)N[C@@H]1C(=O)N2C(C(=O)O)=C(CSC(=O)c3ccco3)CS[C@H]12)c1csc(N)n1` [CEFTIOFUR] reads not below 8 µg/mL; that for `O=C(O)c1cn(C2CC2)c2cc(N3CCNCC3)c(F)cc2c1=O` [CIPROFLOXACIN], less than 0.03 µg/mL.

For a further assay, the system named is Escherichia coli. The assay can be described thus: Antimicrobial activity against Escherichia coli isolates producing extended-spectrum beta-lactamases bla(CTX-M-1), bla(CTX-M-32) and bla(SHV-12) assessed as resistant isolates isolated from Italian broiler flocks by disk diffusion method. (In general: Agar diffusion results depend on both activity and mobility in agar.)
Regarding `O=C(O)c1cn(C2CC2)c2cc(N3CCNCC3)c(F)cc2c1=O` [CIPROFLOXACIN], the Activity is given as 44%.
In the case of `CCn1cc(C(=O)O)c(=O)c2ccc(C)nc21` [NALIDIXIC ACID], the Activity was 83%.
Still for that read-out and setting: the result for `CN(C)[C@@H]1C(O)=C(C(N)=O)C(=O)[C@@]2(O)C(O)=C3C(=O)c4c(O)cccc4[C@@](C)(O)[C@H]3C[C@@H]12` [TETRACYCLINE] reads 94%.

For the origin of these results see ChEMBL document CHEMBL1255407, “High diversity of extended-spectrum beta-lactamases in Escherichia coli isolates from Italian broiler flocks” (2010).
